Reference: patent US20170303817A1, “SURGICAL ARTICLES AND METHODS FOR DETECTION” (GEORGIA STATE UNIVERSITY RESEARCH FOUNDATION, INC., priority 2014, published 2017)

Legend:
[1] = NIR dye leaching from sponges: fluorescence of canine blood samples; conditions: for fluorescence of test canine blood sample (ICG leaching): blood and DMSO in a 1:3 ratio
[2] = In vivo detection of ICG sponge in canine surgical site, 780 nm laser; design: species or system dog; conditions: FIG. 7
Procedure: Method: A stray female dog (Doberman […]) underwent an ovariohysterectomy procedure. After making an incision in the dog's abdomen, a standard 4×4 surgical gauze was placed inside the surgical site and allowed to become saturated with blood. A 780 nm laser was focused on a portion of the gauze and the area photographed and observed for excitation. This experiment was repeated using a sponge soaked in 1 mM ICG dye solution for 1 hr and a sponge soaked in 1 mM ICG dye solution for 24 hrs. Prior to in vivo use, the sponges first underwent sterilization: Steam sterilization at 350° F. for 20 min and gas sterilization in ethylene oxide for 12-24 hr.

fluorescence of test canine blood sample (ICG leaching) ([1]; 1 hr after sponge placement): no fluorescence
fluorescence of test canine blood sample (ICG leaching) ([1]; 4 hours after sponge placement): no fluorescence
fluorescence wavelength in control canine blood sample ([1]; canine blood spiked with 0.1 mM solution of ICG in DMSO, FIG. 8): 815 nm
SMILES: CC1(C)C(/C=C/C=C/C=C/C=C2\N(CCCCS(=O)(=O)O)c3ccc4ccccc4c3C2(C)C)=[N+](CCCCS(=O)(=O)[O-])c2ccc3ccccc3c21 [ICG, indocyanine green]
fluorescence of sponge soaked for 24 hrs compared to sponge soaked for 1 hr ([2]; 1 mM ICG dye solution): increase in florescence
fluorescence of treated sponge compared to the untreated sponge ([2]; sponge treated with 1 mM ICG solution): significant increase in the fluorescence
